Measured values as given in PubChem BioAssay AID192 (DTP/NCI, 2004).
Values joined by “and” are separate entries in the source; they are usually repeats but may differ in a detail not shown here. Identical values can stand only once. Toxic doses and inconclusive results are not listed. Square brackets hold non-standard residues; d marks the D form. Peptide text beside a SMILES is read from it. ξ: configuration not given here. ξNle = CCCCC(N)C(=O)O

Tested on: BDF1 mice, B16 melanoma ip, median survival T/C
Assay: NCI In Vivo Anticancer Drug Screen. Data for tumor model B16 Melanoma (intraperitoneal) in B6D2F1 (BDF1) mice
Conditions: endpoint: median survival time, higher = longer survival
Outline: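 Values are ratios of treated (T) to vehicle-control (C) measurements of survival or tumor size in tumor-bearing mice.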

[1] = dose: 12.5 mg/kg/injection, schedule: Q01DX009 (ip), vehicle: saline with Tween-80
[2] = dose: 25.0 mg/kg/injection, schedule: Q01DX009 (ip), vehicle: saline with Tween-80
[3] = dose: 50.0 mg/kg/injection, schedule: Q01DX009 (ip), vehicle: saline with Tween-80
[4] = dose: 100.0 mg/kg/injection, schedule: Q04DX003 (ip), vehicle: Klucel (hydroxypropylcellulose) (HPC)
[5] = dose: 200.0 mg/kg/injection, schedule: Q04DX003 (ip), vehicle: Klucel (hydroxypropylcellulose) (HPC)
[6] = dose: 400.0 mg/kg/injection, schedule: Q04DX003 (ip), vehicle: Klucel (hydroxypropylcellulose) (HPC)
[7] = dose: 100.0 mg/kg/injection, schedule: Q01DX009 (ip), vehicle: saline with Tween-80
[8] = dose: 25.0 mg/kg/injection, schedule: Q01DX009 (ip), vehicle: saline
[9] = dose: 6.25 mg/kg/injection, schedule: Q01DX009 (ip), vehicle: saline with Tween-80
[10] = dose: 200.0 mg/kg/injection, schedule: Q01DX009 (ip), vehicle: saline with Tween-80
[11] = dose: 400.0 mg/kg/injection, schedule: Q01DX009 (ip), vehicle: saline with Tween-80
[12] = dose: 6.25 mg/kg/injection, schedule: Q01DX009 (ip), vehicle: Klucel (hydroxypropylcellulose) (HPC)
[13] = dose: 12.5 mg/kg/injection, schedule: Q01DX009 (ip), vehicle: Klucel (hydroxypropylcellulose) (HPC)
[14] = dose: 25.0 mg/kg/injection, schedule: Q01DX009 (ip), vehicle: Klucel (hydroxypropylcellulose) (HPC)
[15] = dose: 50.0 mg/kg/injection, schedule: Q01DX009 (ip), vehicle: Klucel (hydroxypropylcellulose) (HPC)
[16] = dose: 100.0 mg/kg/injection, schedule: Q01DX009 (ip), vehicle: Klucel (hydroxypropylcellulose) (HPC)
[17] = dose: 12.5 mg/kg/injection, schedule: Q01DX009 (ip), vehicle: saline
[18] = dose: 200.0 mg/kg/injection, schedule: Q01DX009 (ip), vehicle: Klucel (hydroxypropylcellulose) (HPC)
[19] = dose: 400.0 mg/kg/injection, schedule: Q01DX009 (ip), vehicle: Klucel (hydroxypropylcellulose) (HPC)
[20] = dose: 50.0 mg/kg/injection, schedule: Q04DX003 (ip), vehicle: Klucel (hydroxypropylcellulose) (HPC)
[21] = dose: 6.25 mg/kg/injection, schedule: Q01DX009 (ip), vehicle: saline

c1ccc([P+](c2ccccc2)(c2ccccc2)c2ccccc2)cc1
T/C (dose: 0.13 mg/kg/injection, schedule: Q01DX009 (ip), vehicle: saline): 102 % of control | T/C (dose: 0.2 mg/kg/injection, schedule: Q01DX009 (ip), vehicle: saline): 102 % of control | T/C (dose: 0.3 mg/kg/injection, schedule: Q01DX009 (ip), vehicle: saline): 102 % of control | T/C (dose: 0.44 mg/kg/injection, schedule: Q01DX009 (ip), vehicle: saline): 113 % of control | T/C (dose: 0.63 mg/kg/injection, schedule: Q04DX003 (ip), vehicle: saline): 100 % of control | T/C (dose: 0.66 mg/kg/injection, schedule: Q01DX009 (ip), vehicle: saline): 110 % of control | T/C (dose: 1.0 mg/kg/injection, schedule: Q01DX009 (ip), vehicle: saline): 113 % of control | T/C (dose: 1.25 mg/kg/injection, schedule: Q01DX009 (ip), vehicle: saline with Tween-80): 97 % of control | T/C (dose: 1.25 mg/kg/injection, schedule: Q04DX003 (ip), vehicle: saline): 100 % of control | T/C (dose: 1.5 mg/kg/injection, schedule: Q01DX009 (ip), vehicle: saline): 113 % of control | T/C (dose: 2.5 mg/kg/injection, schedule: Q01DX009 (ip), vehicle: saline with Tween-80): 104 % of control | T/C (dose: 2.5 mg/kg/injection, schedule: Q04DX003 (ip), vehicle: saline): 102 % of control | T/C (dose: 5.0 mg/kg/injection, schedule: Q01DX009 (ip), vehicle: saline with Tween-80): 111 % of control | T/C (dose: 5.0 mg/kg/injection, schedule: Q04DX003 (ip), vehicle: saline): 89 % of control

CSc1ccc(NC(=O)CCl)cc1
T/C [1]: 95 % of control | T/C [2]: 105 % of control | T/C [3]: 96 % of control

Cc1ccc(S(=O)(=O)N(CCO)CC(C)O)cc1 (configuration not stated)
T/C [4]: 105 % of control | T/C [5]: 94 % of control | T/C [6]: 100 % of control

CC(NC(=O)C1CCCN1C(=O)OCc1ccccc1)C(=O)O (configuration not stated)
T/C [3]: 91 % of control | T/C [7]: 90 % of control

CC1=Nc2ccccc2/C1=C\c1c(C)[nH]c2ccccc12
T/C [8]: 110 % of control | T/C (dose: 50.0 mg/kg/injection, schedule: Q01DX009 (ip), vehicle: saline): 113 % of control | T/C (dose: 100.0 mg/kg/injection, schedule: Q01DX009 (ip), vehicle: saline): 121 % of control | T/C (dose: 200.0 mg/kg/injection, schedule: Q01DX009 (ip), vehicle: saline): 97 % of control

C1CN2CCC1CC2
T/C (dose: 1.56 mg/kg/injection, schedule: Q01DX009 (ip), vehicle: saline with Tween-80): 102 % of control | T/C (dose: 3.12 mg/kg/injection, schedule: Q01DX009 (ip), vehicle: saline with Tween-80): 102 % of control | T/C [9]: 92 % of control and 99 % of control | T/C [1]: 86 % of control and 91 % of control | T/C [2]: 86 % of control and 91 % of control

Nc1ccc(S(=O)(=O)c2ccc(NCNc3ccc(S(=O)(=O)c4ccc(N)cc4)cc3)cc2)cc1
T/C [7]: 88 % of control | T/C [10]: 92 % of control | T/C [11]: 90 % of control

CC(C)NNC(=O)c1ccc(Cl)cc1
T/C [12]: 89 % of control | T/C [13]: 92 % of control | T/C [14]: 89 % of control | T/C [15]: 94 % of control | T/C [16]: 107 % of control

CCOc1ccc(Br)cc1/C=N\N=C\c1cc(Br)ccc1OCC
T/C [13]: 100 % of control | T/C [14]: 88 % of control and 105 % of control | T/C [15]: 89 % of control and 94 % of control

CNC(=O)ON(C(C)=O)C(=O)NC
T/C [17]: 87 % of control | T/C [8]: 88 % of control

CCCCCCCCCCCCSCCNC(=O)CCl
T/C [16]: 112 % of control | T/C [18]: 100 % of control | T/C [19]: 96 % of control

COc1cc2c(ccc3c4cc(OC)c(OC)cc4c[n+](C)c23)cc1O
T/C [3]: 108 % of control | T/C [7]: 97 % of control | T/C [10]: 100 % of control

Cc1c(C(=O)O)cc2n(c1=O)Cc1cc3ccccc3nc1-2
T/C (dose: 25.0 mg/kg/injection, schedule: Q04DX003 (ip), vehicle: Klucel (hydroxypropylcellulose) (HPC)): 102 % of control | T/C [20]: 94 % of control | T/C [4]: 89 % of control | T/C (dose: 100.0 mg/kg/injection, schedule: Q04DX003 (ip), vehicle: saline with Tween-80): 100 % of control

O=C(NCCCCCCCCCCNC(=O)N1CC1)N1CC1
T/C (dose: 0.75 mg/kg/injection, schedule: Q01DX009 (ip), vehicle: saline): 115 % of control | T/C (dose: 3.0 mg/kg/injection, schedule: Q01DX009 (ip), vehicle: saline): 154 % of control

CCCCCCCCCCCCCCP(I)(N(C)C)(N(C)C)N(C)C
T/C (dose: 0.1 mg/kg/injection, schedule: Q01DX009 (ip), vehicle: saline with Tween-80): 90 % of control | T/C (dose: 0.2 mg/kg/injection, schedule: Q01DX009 (ip), vehicle: saline with Tween-80): 94 % of control | T/C (dose: 0.38 mg/kg/injection, schedule: Q01DX009 (ip), vehicle: saline with Tween-80): 88 % of control | T/C (dose: 0.4 mg/kg/injection, schedule: Q01DX009 (ip), vehicle: saline with Tween-80): 93 % of control

CC(C)(C)C1CCNC(=O)CC1 (configuration not stated)
T/C (dose: 5.0 mg/kg/injection, schedule: Q01DX009 (ip), vehicle: Klucel (hydroxypropylcellulose) (HPC)): 88 % of control | T/C (dose: 10.0 mg/kg/injection, schedule: Q01DX009 (ip), vehicle: Klucel (hydroxypropylcellulose) (HPC)): 94 % of control | T/C (dose: 20.0 mg/kg/injection, schedule: Q01DX009 (ip), vehicle: Klucel (hydroxypropylcellulose) (HPC)): 97 % of control

Cc1ccccc1NC(=O)Nc1cccc(C)c1C
T/C [20]: 90 % of control | T/C [4]: 96 % of control | T/C [5]: 93 % of control

CC(=O)Nc1ccc(Cl)c(Cl)c1
T/C [15]: 116 % of control | T/C [16]: 121 % of control

CC(=O)Nc1ccc(OC(=O)Nc2ccccc2Cl)cc1
T/C [4]: 93 % of control | T/C [5]: 113 % of control | T/C [6]: 106 % of control

CC(=O)NCc1cc(CNC(C)=O)c(C)cc1C
T/C [7]: 88 % of control | T/C [10]: 86 % of control

CCc1ccc(NC(=O)Nc2ccccc2C)cc1
T/C [4]: 96 % of control | T/C [5]: 96 % of control | T/C [6]: 100 % of control

CC(=O)Nc1ccc(/C=N/NC(N)=S)cc1
T/C [14]: 102 % of control | T/C [2]: 108 % of control | T/C [15]: 100 % of control | T/C [3]: 105 % of control | T/C [16]: 102 % of control | T/C [7]: 100 % of control | T/C [18]: 105 % of control | T/C [10]: 98 % of control | T/C [19]: 100 % of control | T/C [11]: 95 % of control

CCc1cc2c(cc1C(=O)CBr)C(C)(C)CCC2(C)C
T/C (dose: 3.13 mg/kg/injection, schedule: Q01DX009 (ip), vehicle: saline with Tween-80): 100 % of control | T/C [9]: 94 % of control | T/C [1]: 92 % of control and 99 % of control | T/C [2]: 94 % of control

C[CH2][Pb]([CH2]C)([CH2]C)[O]C(=O)CBr
T/C (dose: 0.75 mg/kg/injection, schedule: Q01DX009 (ip), vehicle: Klucel (hydroxypropylcellulose) (HPC)): 100 % of control | T/C (dose: 1.5 mg/kg/injection, schedule: Q01DX009 (ip), vehicle: Klucel (hydroxypropylcellulose) (HPC)): 112 % of control | T/C (dose: 3.0 mg/kg/injection, schedule: Q01DX009 (ip), vehicle: Klucel (hydroxypropylcellulose) (HPC)): 105 % of control and 113 % of control

COc1cc2c(cc1OC)C1CCN3C(=O)CCC3N1CC2 (configuration not stated)
T/C [7]: 94 % of control | T/C [10]: 91 % of control | T/C [11]: 105 % of control

CCN(CC)CCOC(=O)c1ccc(NC(=O)Nc2ccc(C(=O)OCCN(CC)CC)cc2)cc1
T/C [21]: 95 % of control | T/C [17]: 88 % of control | T/C [2]: 97 % of control | T/C [8]: 102 % of control | T/C [3]: 110 % of control | T/C [7]: 108 % of control

O.O.O=c1[nH]cc(CO)c(=O)[nH]1.[NH2-].[NH2-].[Pt+2]
T/C (dose: 3.12 mg/kg/injection, schedule: Q01DX009 (ip), vehicle: Klucel (hydroxypropylcellulose) (HPC)): 107 % of control | T/C [12]: 106 % of control | T/C [14]: 185 % of control

CCCCC(NC(=O)CNC(=O)CN)C(=O)O (stereo not drawn) (H-Gly-Gly-[ξNle]-OH)
T/C [3]: 97 % of control | T/C [7]: 103 % of control | T/C [10]: 92 % of control | T/C [11]: 93 % of control

CNCCCN(C)CCCNC
T/C [21]: 121 % of control | T/C [17]: 109 % of control | T/C [8]: 96 % of control and 111 % of control
